In US7375190B2, “Recombinant protein and method of screening for agents that modulate polypeptide aggregation” (priority 2006, dated 2008):
Where a name gives a salt, the structure may show the parent alone.

Legend:
[1] = tested on: polyglutamine protein aggregation; settings: cited from earlier work
[2] = tested on: neurodegeneration; settings: in vivo; cited from earlier work
[3] = tested on: 97Q-ADE2; test: colony-color assay of yeast cells expressing 97Q-ADE2 on adenine low medium; assay type: cell-based
[4] = tested on: 25Q-ADE2; test: colony-color assay of yeast cells expressing 25Q-ADE2 on adenine low medium; assay type: cell-based; settings: guanidine hydrochloride 0, 1, 3 and 5 mM; 10-cm Petri dish; FIG. 3(A)
[5] = tested on: 97Q-ADE2; test: filter trap assay on cellulose acetate membrane for 97Q-ADE2 aggregates; assay type: cell-based, yeast
Experimental: Therefore, this unique physical characteristic of the aggregates could be detected biochemically using a filter trap assay in which only proteins with size more than 0.2 micrometers retain on a cellulose acetate membrane (Scherzinger et al., 1997, Cell 90, 549-558). In order to validate the colony-color phenotypes observed in the genetic experiments were caused by the formation of ADE2 protein aggregates, cell lysates were prepared and subjected to filter trap assays.
The experimental procedures for slot-blot assay were following: Nitrocellulose (NC) membrane was pre-wetted with TBS (20 mM Tris, 500 mM NaCl), then assembled into Bio-Dot apparatus (BIO-RAD) in which 3 filter papers (BIO-RAD) were on the bottom as a support and NC membrane was on the top. After assembly of the Bio-Dot apparatus, 200 μl TBS buffer was added into each loading well to rinse the membrane followed by the addition of diluted cell lysate (3 μl prepared cell lysate mixed with 197 μl TBS buffer). When the lysate has completely drained from the apparatus by gravity, 200 μl TBS buffer was loaded again to reduce residual proteins within the loading well. Following the step of TBS wash, 200 μl TTBS (20 mM Tris, 500 mM NaCl, and 0.05% Tween 20) was applied as washing buffer and the solution was sucked out by vacuum pump. The membrane was subjected to TTBS wash twice followed by removal of the membrane from the Bio-Dot apparatus and detection of trapped proteins by Western blotting. […] The signal for the immuno-blotting was detected by enhanced chemiluminescence (ECL) reagents. […]
In order to confirm the change of phenotype observed was caused by the alteration of protein solubility, the combination of filter trap and slot blot assays was applied for detecting the level of polyglutamine protein aggregates within these cells. […] Thus, the reduction of polyglutamine protein aggregation caused by Hsp104p inhibitor was tightly associated with the change of cellular phenotype and could be visibly detected by the colony color system.

[6] = tested on: cells that did not express 97Q-ADE2; test: colony-color control on glucose media, cells that did not express 97Q-ADE2, 48-well microplate; assay type: cell-based, yeast; settings: 0, 1, 3 and 5 mM, FIG. 4 first row
Experimental: Plate preparation for colony-color assay was as following: 6.7 g of yeast nitrogen base lacking amino acids, 20 g of Bacto agar and 1.3 g of drop-out mix that contain amino acids supplement necessary for viable and selective growth of the transformed cells were added to 900 ml of H2O according to Burke et al. (Burke et al., Methods in Yeast Genetics, 2000 Edition, Gold Spring Harbor Laboratory Press, 171-175). Carbon source, either glucose or galactose, and filter-sterilized adenine were added after autoclaving to final concentrations of 2% and 4 mg/l, respectively. For preparation of media containing guanidine hydrochloride, the chemical reagent was added simultaneously with carbon source and adenine to final concentrations of […] as indicated. There were about 20 ml of medium in each 10 cm petri dish and 0.2 ml of medium in each well of 48-well microplate.
For the purpose of drug screening, small volume of medium for examining the colony color phenotype of cells has advantage in saving the amount of candidate compound tested. […] With glucose or galactose as carbon source, the transformed cells were grown on adenine low media containing guanidine hydrochloride at a final concentration of 0, 1, 3 and 5 mM as indicated. […]

[7] = target: T1, Hsp104p (Saccharomyces cerevisiae, UniProt P31539); settings: 3-5 mM; cited from earlier work
T1 construct: cellular Hsp104p is required for two similar types of protein aggregation in yeast cells; host or cells: yeast cells (endogenous Hsp104p)
T1 sequence (P31539 whole entry): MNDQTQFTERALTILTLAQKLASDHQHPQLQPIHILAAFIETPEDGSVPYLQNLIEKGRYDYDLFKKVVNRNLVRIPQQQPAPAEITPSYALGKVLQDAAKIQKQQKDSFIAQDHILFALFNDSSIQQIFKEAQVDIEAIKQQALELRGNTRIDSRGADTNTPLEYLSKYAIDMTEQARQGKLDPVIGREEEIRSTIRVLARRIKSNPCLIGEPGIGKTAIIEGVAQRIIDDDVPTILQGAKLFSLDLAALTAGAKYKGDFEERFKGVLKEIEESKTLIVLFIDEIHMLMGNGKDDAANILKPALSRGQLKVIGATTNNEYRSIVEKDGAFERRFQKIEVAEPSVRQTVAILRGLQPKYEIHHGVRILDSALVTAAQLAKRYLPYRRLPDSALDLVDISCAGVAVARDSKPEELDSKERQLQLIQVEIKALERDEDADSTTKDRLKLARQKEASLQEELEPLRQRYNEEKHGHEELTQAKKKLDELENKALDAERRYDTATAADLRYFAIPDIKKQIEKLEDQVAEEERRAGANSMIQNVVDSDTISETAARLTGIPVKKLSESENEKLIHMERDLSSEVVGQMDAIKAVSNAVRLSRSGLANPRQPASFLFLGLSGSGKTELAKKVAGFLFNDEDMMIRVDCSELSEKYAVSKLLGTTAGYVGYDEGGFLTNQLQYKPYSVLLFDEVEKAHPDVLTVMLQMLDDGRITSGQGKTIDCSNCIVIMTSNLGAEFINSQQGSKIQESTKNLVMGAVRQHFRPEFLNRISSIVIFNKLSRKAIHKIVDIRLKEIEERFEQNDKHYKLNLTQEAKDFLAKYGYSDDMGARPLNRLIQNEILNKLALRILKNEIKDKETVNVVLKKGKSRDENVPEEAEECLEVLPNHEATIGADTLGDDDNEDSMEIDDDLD

SMILES | polyglutamine protein aggregation [1] | neurodegeneration in an animal model [2] | cellular color of 97Q-ADE2 expressing cells ([3]; 0, 1, 3 and 5 mM, 48-well microplate, galactose, FIG. 4 second row) | appearance of colony color, 97Q-ADE2 versus 25Q-ADE2 cells ([3]; 5 mM, 10-cm Petri dish) | cellular color phenotype of cells expressing 97Q-ADE2 ([3]; guanidine hydrochloride 0, 1, 3 and 5 mM, adenine low media, 10-cm Petri dish, FIG. 3(A)) | colony color of cells expressing 25Q-ADE2 [4] | 97Q-ADE2 fusion protein trapped on cellulose acetate membrane ([5]; 1 mM, FIG. 3(B) lane 3) | 97Q-ADE2 fusion protein trapped on cellulose acetate membrane ([5]; 3 mM, continuous treatment, FIG. 3(B) lane 4) | 97Q-ADE2 fusion protein trapped on cellulose acetate membrane ([5]; 5 mM, continuous treatment, FIG. 3(B) lane 5) | colony color of cells that did not express 97Q-ADE2 [6] | activity of Hsp104p [7]
C[C@@H](N)[C@H]1CC[C@H](C(=O)Nc2ccncc2)CC1 [Y-27632] | diminished polyglutamine protein aggregation | reduced neurodegeneration |  |  |  |  |  |  |  |  | 
N=C(N)N [guanidine hydrochloride] |  |  | changed their cellular colors from red to white | indistinguishable between cells expressing 25Q-ADE2 and 97Q-ADE2 | changed from red to pink and white as a function of guanidine hydrochloride concentration | constantly showed colony color of white | significant amount of the fusion protein was trapped | little | no signal | the cellular phenotype remained the same | substantially reduces the activity of Hsp104p
